Test results reported in patent US20240408086A1, “USE OF LUVADAXISTAT FOR THE TREATMENT OF COGNITIVE IMPAIRMENT” (TAKEDA PHARMACEUTICAL COMPANY LIMITED, priority 2021, published 2024).

System: rat hippocampus
Experiment: D-serine on short-term potentiation and long-term depression in rat hippocampal slices
Parameters: species or system Sprague Dawley rats
Conditions: 1 mM D-serine vs controls
Procedure: To obtain rat hippocampal slices, 4-week-old Sprague Dawley rats (provided by Elevage Janvier, Le Genest-Saint-Isle, France) were euthanized by fast decapitation without anesthesia. The brain was quickly removed and soaked in ice-cold oxygenated buffer: 2 mM KCl, 1.2 mM NaH2PO4, 7 mM MgCl2, 0.5 mM CaCl2), 26 mM NaHCO3, 11 mM glucose, and 250 mM sucrose. Hippocampal slices were prepared at 400 μm thickness with a McILWAIN tissue chopper. […] Slices were continuously perfused with oxygenated aCSF during experiments. The animals were housed and used in accordance with French and European legislation.
Electrophysiological recordings were obtained from a single hippocampal slice placed on the chamber and perfused with aCSF at a constant rate. Extracellular field excitatory postsynaptic potentials (fEPSPs) were recorded in the CA1 stratum radiatum using a glass micropipette filled with aCSF. fEPSPs were evoked by electrical stimulation of Schaffer collaterals/commissural pathway at 0.1 Hz with a glass stimulating electrode placed in the stratum radiatum.
Acute high doses (1 mM) of D-serine induced hippocampal synaptic plasticity (short-term potentiation and long-term depression) compared with controls in the rat hippocampus (FIGS. 1A-1C). Data in FIGS. 1A and 1B were normalized to the 10-minute control period.

N[C@H](CO)C(=O)O [D-serine]
Depression of EPSP amplitudes (long-term depression) (p=0.0374, unpaired t-test): significantly decreased the depression of EPSP amplitudes
Potentiation of excitatory postsynaptic potential (EPSP) amplitudes (short-term potentiation) (p=0.0603, unpaired t-test): increased the potentiation of excitatory postsynaptic potential (EPSP) amplitudes, although this change was not statistically significant
